# Earlier results, collected in US20160302965A1, “IMPLANTABLE THERAPEUTIC DEVICES” (ForSight Vision4, Inc., priority 2013, published 2016).
SMILES,solubility of the prodrug (concentration maintained in the fluid boundary layer) [µg/mL],solubility in PBS at pH 7 (pH 7) [ug/ml],solubility at pH 7 (pH 7)
CCNC(=O)CCC/C=C\C[C@@H]1[C@@H](/C=C/[C@@H](O)CCc2ccccc2)[C@H](O)C[C@@H]1O [bimatoprost],300,300,
Brc1c(NC2=NCCN2)ccc2nccnc12 [brimonidine],,,about 600 ug/ml
O=C(O)CCC/C=C\C[C@@H]1[C@@H](CC[C@@H](O)CCc2ccccc2)[C@H](O)C[C@@H]1O [latanoprost free acid],,800,
CC(C)OC(=O)CCC/C=C\C[C@@H]1[C@@H](CC[C@@H](O)CCc2ccccc2)[C@H](O)C[C@@H]1O [latanoprost],,50,
